Data published in US7361459B2, “Antiviral inhibition of capsid proteins” (University of Maryland, Baltimore County, priority 2002, dated 2008).
Where two headings read alike, the source gives them in different places.

Assays:
HIV-1RF = experiment: Virus particle infectivity and RT activity from infected MAGI cell cultures; type: cell-based
Method: (§1) U1 cells (5×10^5 cells/ml) were mixed with TNF-α (10 ng/ml, Sigma) for activation of HIV virion production and treated with CAP-1 at different concentrations. Cultures were harvested 72 hours after treatment. Cell viability was measured using the MTS cell proliferation assay (CellTiter 96 Aqueous One Solution Cell Proliferation Assay, Promega, Madison, Wis.). Supernatants were collected, the cell debris removed by low speed centrifugation, and the particles in the supernatants pelleted by microcentrifugation. Infectious units associated with the particles were measured as described in Kimpton, et al., Detection of replication-competent and pseudotyped HIV with a sensitive cell line on the basis of activation of an integrated β-galactosidase gene, J. Virol. 66: 2232-39, 1992, except that β-gal activities were measured using a Tropix Gal-Screen detector system (Applied Biosystems, Foster City, Calif.). Particle-associated RT activities were determined as described in Huang, et al., p6Gag is required for particle production from full length human immunodeficiency virus type 1 molecular clones expressing protease, J. Virol., […]: 6810-18, 1995. Cell lysates and pelleted particles were subjected to SDS-PAGE analysis using AIDS patient sera (AIDS Research and Reference Regent Program, NIAID, NIH). Quantitative p24 (CA) assays were performed with the HIV-1 p24 Antigen Capture ELISA kit (AIDS vaccine program, FCRDC/SAIC/NCI, Frederick, Md.). MAGI cells were washed after viral adsorption (HIV-1RF) with PBS and were fed fresh media containing CAP-1 at various concentrations. 72 hours post-infection, the culture supernatants were harvested and pre-cleared. Virus particles present on the supernatants were collected by microcentrifugation and particle-associated RT activity and infectivity were subsequently measured.

HIV-1 CA = HIV-1 CA (Human immunodeficiency virus type 1 group M subtype B, UniProt P12493); details: for initial assembly rate: 350 nm, 21° C., no compound 204±36
Method: Turbidity assays were performed at 21° C. using a Beckman DU650 spectrophotometer operating at 350 nm wavelength. Concentrated ligand in DMSO (0.2 μl) was added to a 250 μl aqueous solution containing the capsid protein ([CA]=60 μM; [NaH2PO4]=50 mM; pH 8.0). Particulates were removed by centrifugation, and capsid assembly was initiated by addition of a concentrated NaCl solution (5 M, 250 μl). Spectral measurements were made every 10 s, following a short initial delay to allow sample equilibration. Relative assembly rates were estimated from initial slopes of the plots of absorbance vs. time.
Tube formation leads to increases in sample turbidity that can be monitored spectrophotometrically, and this assay was used to probe for potential inhibitory effects of the CAP compounds on in vitro capsid assembly.

gp120 = experiment: Quantitation of gp120 in supernatant with antibodies against gp120; type: cell-based, HIV-1
Method: (§2) To determine if CAP-1 affects viral gene expression and particle production, reverse transcriptase (RT) activity and CA (p24) levels were measured for the supernatants after pelleting and removal of the cells. […] Quantitation of gp120 was also obtained for the supernatant using antibodies against gp120.

HIV-1 [1] = experiment: Virus production: particle-associated RT activity and CA (p24) levels in U1 supernatants; type: cell-based; details: U1 cells
Method: as §1, with “Cell lysates and pelleted particles were subjected to SDS-PAGE analysis using AIDS patient sera (AIDS Research and Reference Regent Program, NIAID, NIH).” left out, “MAGI cells were washed after viral adsorption (HIV-1RF) with PBS and were fed fresh media containing CAP-1 at various concentrations. 72 hours post-infection, the culture supernatants were harvested and pre-cleared. Virus particles present on the supernatants were collected by microcentrifugation and particle-associated RT activity and infectivity were subsequently measured.” left out

protease = protease (Human immunodeficiency virus type 1 group M subtype B, UniProt P04585); experiment: In vitro protease activity; type: biochemical
Gag = Gag (Human immunodeficiency virus type 1 group M subtype B, UniProt P12493); experiment: Mass action calculation of CAP-1 bound to CA/Gag in immature virions; design: species or system HIV-1
Method: This is likely due to the high local concentration of Gag molecules in assembled virions (14 mM), which favors binding by ligands with even modest affinities, e.g., N-(3-chloro-4-methylphenyl)-N′-[2-thioethyl-2′-[5-(dimethylaminomethyl)]-2-methylfuryl]urea (CAP-1). Thus conservatively assuming that cytosolic drug concentrations in the budding virus and cells are equal (100 μM), the percentage of viral CAP-1 molecules bound to CA can be estimated by standard mass action calculations which affords a value for the concentration of bound CAP-1 ([CA:CAP-1]) of 94 μM.

Gag polyprotein = experiment: p24 (CA) Western blot of Gag and its cleavage products, U1 cells; type: cell-based, HIV-1
Method: as §1, with “72 hours post-infection, the culture supernatants were harvested and pre-cleared.” left out
as §2

U1 cells = experiment: Cell viability / toxicity, MTS cell proliferation assay; details: for toxicity (in words): latent infected U1 cells
Method: as §1
The CAP compounds were tested for toxicity and antiviral activity using HIV-1 producing, latent infected U1 cells. This assay allows assessment of antiviral effects on late phase replication events.

[2] = tested on: HIV-1 capsid core assembly; type: cell-based; details: particles from treated U1 cells
Method: Treated (CAP-1) and untreated virus-producing U1 cells were pelleted, washed in phosphate-buffered saline (PBS) and resuspended in at least ten cell pellet volumes of fixative (100 mM sodium cacodylate, pH 7.2, 2.5% glutaraldehyde, 1.6% paraformaldehyde, 0.5% picric acid). Cells were fixed for 24-48 hours, after which fixative was removed and cells were washed twice in PBS and pelleted in eppendorf centrifuge tubes. Washed cell pellets were post-fixed one hour in 1% osmium tetroxide plus 0.8% potassium ferricyanide in 100 mM sodium cacodylate, pH 7.2. After thorough rinsing in water, cells were pre-stained in 4% uranyl acetate one hour, thoroughly rinsed, dehydrated, infiltrated overnight in 1:1 acetone:Epon 812, infiltrated one hour with 100% Epon 812 resin, and embedded in the resin. After polymerization, 60-80 nm thin sections were cut on a Reichert untramicrotome, stained 5 minutes in lead citrate, rinsed, post-stained 30 minutes in uranyl acetate, rinsed and dried. EM was performed at 60 kV on a Philips CM120/Biotwin equipped with a 1024×1024 Gatan multiscan CCD, and images were collected at original magnifications of 25,880×-36,960×, corresponding t resolutions of 8.9 and 6.5 Å/pixel, respectively. For each sample, 4 separate EM grids were viewed, and at least 47 were collected, corresponding to a minimum total area of 35 micron^2.

HIV-1 [3] = experiment: Infectious units of particles from latent infected U1 cells; type: cell-based
Method: as §1, with “Cell lysates and pelleted particles were subjected to SDS-PAGE analysis using AIDS patient sera (AIDS Research and Reference Regent Program, NIAID, NIH).” left out, “MAGI cells were washed after viral adsorption (HIV-1RF) with PBS and were fed fresh media containing CAP-1 at various concentrations. 72 hours post-infection, the culture supernatants were harvested and pre-cleared. Virus particles present on the supernatants were collected by microcentrifugation and particle-associated RT activity and infectivity were subsequently measured.” left out

[4] = molecular target: T1, HIV-1 capsid protein N-terminal domain (Human immunodeficiency virus type 1 group M subtype B, UniProt P12493); experiment: 1H-15N HSQC NMR titration, binding to the apical cleft; details: for binding to the capsid NTD, from chemical shift changes (in words): 1H-15N HSQC, FIGS. 13-14
T1 construct: DNA encoding the CA N-terminal domain (residues 1-151); made in house
Excerpt: DNA encoding the CA N-terminal domain (residues 1-151) was amplified from HIV-1 cDNA plasmid pNL-4-3 and an oligonucleotide encoding a C-terminal hexahistidine tag was appended to the gene. The DNA was inserted into a p11a expression vector (Novagen, Madison, Wis.), and the protein product was purified by cobalt affinity chromatography (Clontech, Palo Alto, Calif.); MWcalc=17523.0 daltons, MWobs=17523.10±0.44 daltons (electrospray Mass Spectrometry). The plasmid for the full length, native capsid protein was kindly provided by Dr. W. I. Sundquist (University of Utah, Salt Lake City, Utah), and the protein was purified as described. NMR spectra were assigned using conventional triple resonance methods. Binding isotherms from ^1H-^15N NMR HSQC titration experiments were calculated with ORIGIN 7.0 software (MicroCal, Northampton, Mass.).
To identify compounds that inhibit functions of the capsid protein, public domain chemical libraries were screened for compounds that might bind to clefts on the surface of the capsid protein and tested for binding using NMR titration spectroscopy. Screening efforts focused mainly on a β-hairpin cleft that is exposed on the surface of the N-terminal domain of the immature capsid protein but becomes occupied by residues of a β-hairpin that forms after proteolytic cleavage of Gag.
The mature N-terminal domain was titrated with N-(3-chloro-4-methylphenyl)-N′-[2-thioethyl-2′-[5-(dimethylaminomethyl)]-2-methylfuryl ]urea (CAP-1).

[5] = as a function of increasing CAP-1

Molecule: Cc1ccc(NC(=O)NCCSCc2ccc(CN(C)C)o2)cc1Cl [CAP-1, N-(3-chloro-4-methylphenyl)-N′-[2-thioethyl-2′-[5-(dimethylaminomethyl)]-2-methylfuryl]urea]
- infectious units, of the untreated levels (HIV-1RF; 100 μM, MAGI cells, 72 hours post-infection): less than 2%
- viral RT activity (in words) (HIV-1RF; MAGI cells): No reductions
- virus production after pre-incubation of MAGI cells or virus particles (in words) (HIV-1RF; pre-incubation with CAP-1): unaffected
- effect on the rate of assembly (in words) (HIV-1 CA): diminished in a dose-dependent manner
- initial assembly rate (HIV-1 CA; compound:CA ratio 1:1): 93±3 mOD/min
- initial assembly rate (HIV-1 CA; compound:CA ratio 2:1): 67±16 mOD/min
- gp120 in supernatant, treated vs untreated (in words) (gp120): No differences
- CA (p24) levels of supernatants (in words) (HIV-1 [1]): unaffected
- RT activities of supernatants (in words) (HIV-1 [1]): unaffected
- in vitro protease activity (in words) (protease): did not affect
- CAP-1 molecules in immature virions bound to Gag (Gag; 100 μM dose): 94%
- concentration of bound CAP-1 ([CA:CAP-1]) (Gag; 100 μM drug, 14 mM Gag in assembled virions): 94 µM
- intracellular levels of Gag (p55) (in words) (Gag polyprotein; [5]): reduction
- levels of Gag cleavage products p24 and p41 (in words) (Gag polyprotein; [5]): remained relatively unaffected
- proteolytic processing of Gag (in words) (Gag polyprotein; p24 Western, treated vs untreated): does not significantly affect
- cell viability (in words) (U1 cells; 100 μM, U1 cells, 72 hours): fully viable
- tolerability in cell cultures (in words) (U1 cells; cell cultures): particularly well-tolerated
- toxicity (in words) (U1 cells; 72 hours): non-toxic
- particles with a cone-shaped core (in words) [2]: none
- particles containing a dense, centrally located core ([2]; untreated 70%): 35%
- effect on supernatant infectivity (in words) (HIV-1 [3]): dose dependent reductions
- reduction of infectivity relative to untreated samples (HIV-1 [3]; 100 μM, 72 hours): ca. 95%
- binding to the capsid NTD, from chemical shift changes (in words) [4]: bind to the apical site of the protein

Molecule: CC(=O)Nc1ccc(NC(=O)Nc2ccc(C)c([N+](=O)[O-])c2)cc1 [CAP-2, N-(4-N-acetamidophenyl)-N′-(3-nitro-4-methylphenyl) urea]
- effect on the rate of assembly (in words) (HIV-1 CA): diminished in a dose-dependent manner
- initial assembly rate (HIV-1 CA; compound:CA ratio 0.5:1): 81±2 mOD/min
- initial assembly rate (HIV-1 CA; compound:CA ratio 1:1): 39±11 mOD/min
- toxicity (in words) (U1 cells; 72 hours): too cytotoxic
- binding to the capsid NTD, from chemical shift changes (in words) [4]: bind to the apical site of the protein
- Kd ([4]; NMR titration, 1:1 binding isotherms): 52 ± 27 µM

Molecule: Cc1ccc(NC(=O)NC(C)C)cc1[N+](=O)[O-] [CAP-3, N-(2-propyl)-N′-(3-nitro-4-methylphenyl) urea]
- binding to the capsid NTD, from chemical shift changes (in words) [4]: very weak binding

Molecule: Cc1ccc(NC(=O)Nc2ccc(C#N)cc2)cc1Cl [CAP-4, N-(3-chloro-4-methylphenyl)-N′-(4-cyanophenyl) urea]
- binding to the capsid NTD, from chemical shift changes (in words) [4]: very weak binding

Molecule: Cc1ccc(NC(=O)Nc2ccc(C(Cl)(Cl)Cl)cc2)cc1Cl [CAP-5, N-(3-chloro-4-methylphenyl)-N′-[4-(1,1,1-trichloromethyl)phenyl] urea]
- binding to the capsid NTD, from chemical shift changes (in words) [4]: capsid binding

Molecule: O=C(Nc1cccc(C(F)(F)F)c1)Nc1ccc(F)c([N+](=O)[O-])c1 [CAP-6, N-(3-nitro-4-fluorophenyl)-N′-[3-(1,1,1-trifluoromethyl)phenyl] urea]
- binding to the capsid NTD, from chemical shift changes (in words) [4]: capsid binding

Molecule: N-[(3-chloro-4-methyl phenyl)-N′,N′-propyl] urea [CAP-7]
- binding to the capsid NTD, from chemical shift changes (in words) [4]: capsid binding
